Measurements from patent US20060194293A1, “Rb1 gene induced protein (rb1cc1) and gene” (Tokuhiro CHANO, priority 2003, published 2006).
“Also recorded” adds a separate entry of the source.

Assays:
Type in all cases: cell-based, human
[1] = tested on: U-2 OS/DX580 cells; assay: Cell proliferation under doxorubicin treatment, MDR variant cells; settings: U-2 OS/DX580 MDR variants, 450 ng/mL doxorubicin
Experimental: (§1) The effect on cell proliferation in the presence of 450 ng/mL of the anticancer agent doxorubicin was examined.

[2] = tested on: U-2/DOXO 35 cells; assay: Cell proliferation under doxorubicin treatment, MDR1 gene-introduced cells; settings: U-2/DOXO 35 (MDR1 gene introduced), 450 ng/mL doxorubicin
Experimental: as §1

[3] = tested on: RB1CC1 gene; assay: Northern blot of RB1CC1 gene expression after doxorubicin, parental U-2 OS cells; settings: doxorubicin treatment, over time
Experimental: (§2) Expression levels of RB1CC1 gene and MDR1 gene in parental U2 OS cells and several kinds of MDR-variant cells were analyzed by Northern blotting. A probe hybridizing between nucleotide numbers 4190 and 4654 of the RB1CC1 gene sequence was used as a probe for analysis of RB1CC1 gene, and a probe hybridizing between nucleotide numbers 834 and 1119 of MDR1 gene was used for MDR1 gene. Probes were used after labeling with α-32P-dCTP in which phosphorus at an alpha position of […] was substituted with a radioactive isotope. Glyceraldehyde-3-phosphate dehydrogenase (GAPDH) was used as the indicator of mRNA expression.
(§3) mRNA expression levels of cells that were obtained over time in the above-mentioned experiment were analyzed. Analysis was conducted for the novel gene RB1CC1 gene of the present invention, the RB1 gene and the MDR1 gene, respectively, in the same manner as Example 3 with the exception that expression levels of the RB1 gene were detected using a probe hybridizing to the site at nucleotides 336 to 675 of the nucleotide sequence of human RB1 mRNA. […] In contrast, in MDR variants of U-2 OS cells (U-2 OS/DX580) and U-2 OS cells introduced with MDR1 gene (U-2/DOXO 35), expression level of RB1CC1 gene was not inhibited by treatment with doxorubicin, and expression of RB1CC1 gene increased. […]

[4] = tested on: RB1CC1 gene; assay: Northern blot of RB1CC1 gene expression after doxorubicin, U-2/DOXO 35 cells; settings: U-2/DOXO 35 (MDR1 gene introduced), doxorubicin treatment
Experimental: as §2, §3

[5] = tested on: U-2 OS cells; assay: Cell proliferation under doxorubicin treatment, parental cells; settings: parental U-2 OS cells
Experimental: as §1

[6] = tested on: U-2/Neo8 cells; assay: Cell proliferation under doxorubicin treatment, control gene-introduced cells; settings: U-2/Neo8 control cells
Experimental: as §1

[7] = tested on: RB1CC1 gene; assay: Northern blot of RB1CC1 gene expression after doxorubicin, U-2/Neo8 cells; settings: U-2/Neo8 control cells, doxorubicin treatment, over time
Experimental: as §2, §3

[8] = tested on: RB1CC1 gene; assay: Northern blot of RB1CC1 gene expression after doxorubicin, U-2 OS/DX580 cells; settings: U-2 OS/DX580 MDR variants, doxorubicin treatment
Experimental: as §2, §3

COc1cccc2c1C(=O)c1c(O)c3c(c(O)c1C2=O)C[C@@](O)(C(=O)CO)C[C@@H]3O[C@H]1C[C@H](N)[C@H](O)[C@H](C)O1 [doxorubicin]
effect on cell proliferation [1]: did not exhibit an inhibitory effect; also recorded: had no effect
effect on cell proliferation [2]: had no effect
expression of the RB1CC1 gene (mRNA) [3]: lowered expression; also recorded: decreased over time
expression of the RB1CC1 gene (mRNA) [4]: increased; also recorded: not inhibited
effect on cell proliferation ([5]; 450 ng/mL doxorubicin): suppressed
cell death ([5]; doxorubicin treatment): induced cell death
effect on cell proliferation ([6]; 450 ng/mL doxorubicin): suppressed
cell death ([6]; doxorubicin treatment): induced cell death
expression of the RB1CC1 gene (mRNA) [7]: lowered expression; also recorded: decreased over time
expression of the RB1CC1 gene (mRNA) [8]: did not exhibit an inhibitory effect; also recorded: not inhibited
